Data as given in patent publication US20210163976A1, “GENETICALLY ALTERED PLANTS EXPRESSING HETEROLOGOUS RECEPTORS THAT RECOGNIZE LIPO-CHITOOLIGOSACCHARIDES” (Aarhus Universitet, priority 2018, published 2021).
“Also recorded” adds a separate entry of the source.

Experiments:
Medicago NFP ectodomain = target: T1, Medicago NFP ectodomain (Medicago truncatula, UniProt Q0GXS4); test: Microscale thermophoresis (MST) binding of ligands to labelled NFP; conditions: carbohydrate ligands
T1 construct: The Medicago truncatula NFP ectodomain (residues 28-246) was codon-optimized; AcMNPV gp67 signal peptide (replaces native signal peptide 1-27) (N); made in house; host or cells: Sf9 (Spodoptera frugiperda), baculovirus, secreted into medium
T1 sequence (Q0GXS4 28-246): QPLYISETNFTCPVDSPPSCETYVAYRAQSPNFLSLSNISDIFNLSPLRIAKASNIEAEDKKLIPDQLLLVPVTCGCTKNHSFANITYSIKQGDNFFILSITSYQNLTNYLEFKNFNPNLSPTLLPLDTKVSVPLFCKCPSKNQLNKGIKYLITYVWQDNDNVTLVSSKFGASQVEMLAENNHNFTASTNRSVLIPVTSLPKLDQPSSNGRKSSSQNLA
Method: Expression and purification of Medicago NFP ectodomain: The Medicago truncatula NFP ectodomain (residues 28-246) was codon-optimized for insect cell expression (Genscript, Piscataway, USA) and cloned into the pOET4 baculovirus transfer vector (Oxford Expression Technologies). The native NFP signal peptide (residues 1-27, predicted by SignalP 4.1) was replaced with the AcMNPV gp67 signal peptide to facilitate secretion and a hexa-histidine tag was added to the C-terminus. Point mutants of NFP were engineered using site-directed mutagenesis. Recombinant baculoviruses were produced in Sf9 cells (Spodoptera frugiperda) using the FlashBac Gold kit (Oxford Expression technologies) according to the manufacturer's instructions with Lipofectin (ThermoFisher Scientific) as a transfection reagent. Protein expression was performed as follows. Suspension-cultured Sf9 cells were maintained with shaking at 299 K in serum-free MAX-XP (BD-Biosciences, discontinued) or HyClone SFX (GE Healthcare) medium supplemented with 1% Pen-Strep (10000 U/ml, Life technologies) and 1% CD lipid concentrate (Gibco). Protein expression was induced by adding recombinant passage 3 virus once the Sf9 cells reached a cell density of 1.0*10^7^6 cells/ml. After 5-7 days of expression, medium supernatant containing NFP ectodomains was harvested by centrifugation. […]

[1] = target: T2, Medicago NFP ectodomain (NFP-ECD, WT) (Medicago truncatula, UniProt Q0GXS4); test: Biolayer interferometry (BLI) binding of NFP-ECD to immobilized biotinylated ligands; conditions: further BLI assays, FIGS. 15B-15E; listed as chitin
T2 construct: The Medicago truncatula NFP ectodomain (residues 28-246) was codon-optimized; AcMNPV gp67 signal peptide (replaces native signal peptide 1-27) (N); made in house; host or cells: Sf9 (Spodoptera frugiperda), baculovirus, secreted into medium
T2 sequence (Q0GXS4 28-246): T1 sequence (Q0GXS4 28-246)
Method: (§1) Expression and purification of Medicago NFP ectodomain: The Medicago truncatula NFP ectodomain (residues 28-246) was codon-optimized for insect cell expression (Genscript, Piscataway, USA) and cloned into the pOET4 baculovirus transfer vector (Oxford Expression Technologies). The native NFP signal peptide (residues 1-27, predicted by SignalP 4.1) was replaced with the AcMNPV gp67 signal peptide to facilitate secretion and a hexa-histidine tag was added to the C-terminus. Point mutants of NFP were engineered using site-directed mutagenesis. Recombinant baculoviruses were produced in Sf9 cells (Spodoptera frugiperda) using the FlashBac Gold kit (Oxford Expression technologies) according to the manufacturer's instructions with Lipofectin (ThermoFisher Scientific) as a transfection reagent. Protein expression was performed as follows. Suspension-cultured Sf9 cells were maintained with shaking at 299 K in serum-free MAX-XP (BD-Biosciences, discontinued) or HyClone SFX (GE Healthcare) medium supplemented with 1% Pen-Strep (10000 U/ml, Life technologies) and 1% CD lipid concentrate (Gibco). Protein expression was induced by adding recombinant passage 3 virus once the Sf9 cells reached a cell density of 1.0*10^7^6 cells/ml. After 5-7 days of expression, medium supernatant containing NFP ectodomains was harvested by centrifugation. This was followed by an overnight dialysis step against 50 mM Tris-HCl pH 8, 200 mM NaCl at 277 K. The NFP ectodomain was enriched by two subsequent steps of Ni-IMAC purification (HisTrap excel/HisTrap HP, both GE Healthcare). For crystallography experiments, N-glycans were removed using the endoglycosidase PNGase F (1:15 (w/w), room temperature, overnight). As a final purification step, NFP ectodomain was purified by SEC on a Superdex 200 10/300 or HiLoad Superdex 200 16/600 (both GE Healthcare) in phosphate buffered saline at pH 7.2 supplemented to a total of 500 mM NaCl (for binding assays) or 50 mM Tris-HCl, 200 mM NaCl (for crystallography). NFP ectodomain elutes as a single, homogeneous peak corresponding to a monomer. Point mutated versions of NFP were expressed and purified following the same protocol.
(§2) Biolayer interferometry (BLI): Binding of NFP and mutated versions of NFP to ligands was measured on an Octet RED 96 system (Pall ForteBio). The ligands used were LCO-IV (from S. meliloti), LCO-V (from S. meliloti), LCO-V (from M. loti), and C06 (from M. loti). S. meliloti LCO consists of a tetrameric/pentameric N-acetylglucosamine backbone that is 0-sulfated on the reducing terminal residue, 0-acetylated on the non-reducing terminal residue, and mono-N-acylated by unsaturated C16 acyl groups. M. loti LCO is a pentameric N-acetylglucosamine with a cis-vaccenic acid and a carbamoyl group at the non-reducing terminal residue together with a 2,4-O-acetylfucose at the reducing terminal residue. Biotinylated ligand conjugates were immobilized on streptavidin biosensors (kinetic quality, Pall ForteBio) at a concentration of 125-250 nM for 5 minutes. The binding assays using the S. meliloti ligands (LCO-IV and LCO-V) were replicated seven times, while the binding assays using the M loti ligands (LCO-V and C06) were replicated six times. Data analysis was performed in GraphPad Prism 6 software (GraphPad Software, Inc.). Equilibrium dissociation constants derived from the steady-state were determined by applying a non-linear regression (one site, specific binding) to the response at equilibrium plotted against the protein concentration. Kinetic parameters were determined by non-linear regression (association followed by dissociation) on the subtracted data.
(§3) Mutated lipochitooligosaccharide (LCO) ligands: S. meliloti LCO consists of a tetrameric/pentameric N-acetylglucosamine backbone that is O-sulfated on the reducing terminal residue, O-acetylated on the non-reducing terminal residue, and mono-N-acylated by unsaturated C16 acyl groups. […]

HvRLK10 ectodomain = test: BLI binding of HvRLK10 ectodomain to ligands; parameters: species or system H. vulgare; conditions: FIGS. 13A, 13C, 13D
[2] = target: T3, Medicago truncatula NFP ectodomain (NFP-ECD, residues 28-246), wild type, SEQ ID NO: 1 (Medicago truncatula, UniProt Q0GXS4); test: Biolayer interferometry (BLI) binding of NFP / NFP-ECD to immobilized LCO and CO ligands; conditions: further BLI assays, FIGS. 15B-15E, analyte 1.56-100 μM; listed as chitin
T3 construct: The Medicago truncatula NFP ectodomain (residues 28-246); AcMNPV gp67 signal peptide (replaces native signal peptide 1-27) (N); hexa-histidine tag (C); made in house; host or cells: Sf9 cells (Spodoptera frugiperda), baculovirus
Method: as §1, §2, §3

[3] = target: T3, Medicago truncatula NFP ectodomain (NFP-ECD, residues 28-246), wild type, SEQ ID NO: 1; test: Microscale thermophoresis (MST) binding of NFP to carbohydrate ligands; conditions: read-out: Dissociation constant (Kd)
Method: as §1, with “Point mutated versions of NFP were expressed and purified following the same protocol.” left out

[4] = target: T4, Hordeum vulgare RLK10 (HvRLK10; HvLysM-RLK10) ectodomain (residues 25-231), SEQ ID NO: 29 (construct SEQ ID NO: 28) (Hordeum vulgare, UniProt A0A8I6Y103); test: BLI binding of barley HvRLK10 ectodomain; parameters: species or system Hordeum vulgare (barley); conditions: FIGS. 13A, 13C-13D
T4 construct: full-length natural protein 633 aa beginning […]
T4 sequence (A0A8I6Y103 25-231): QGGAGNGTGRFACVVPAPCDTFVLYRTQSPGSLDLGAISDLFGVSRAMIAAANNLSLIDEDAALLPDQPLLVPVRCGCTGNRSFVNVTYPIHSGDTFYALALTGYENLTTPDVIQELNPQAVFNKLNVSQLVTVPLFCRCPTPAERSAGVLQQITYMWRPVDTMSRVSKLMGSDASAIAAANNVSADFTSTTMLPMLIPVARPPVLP

| Compound | binding to NFP (MST) (Medicago NFP ectodomain) | NFP-ECD binding (BLI) [1] | HvRLK10 ectodomain binding (BLI) (HvRLK10 ectodomain) | Binding to NFP-ECD (in words) [2] | Kd [3] [µM] | Binding to HvRLK10 ectodomain (in words) [4] |
| --- | --- | --- | --- | --- | --- | --- |
| maltohexaose | not able to bind |  |  |  |  |  |
| CC(=O)N[C@H]1[C@H](O[C@H]2[C@H](O)[C@@H](NC(C)=O)[C@H](O[C@H]3[C@H](O)[C@@H](NC(C)=O)C(O)O[C@@H]3CO)O[C@@H]2CO)O[C@H](CO)[C@@H](O[C@@H]2O[C@H](CO)[C@@H](O[C@@H]3O[C@H](CO)[C@@H](O)[C@H](O)[C@H]3NC(C)=O)[C@H](O)[C@H]2NC(C)=O)[C@@H]1O (stereo partly drawn) [CO5] |  | did not bind; also recorded: does not bind | did not bind | did not bind; also recorded: does not bind | 93 | did not bind |
